Results on 5 molecules are retold here after publication PMC5742776 (Foods, 2017).

What all share (assay type): biochemical
Test [1] has as its system angiotensin-I-converting enzyme (ACE-I; EC 3.4.15.1). Briefly: ACE-I inhibition assay (ACE Kit-WST). Conditions: 1 mg/mL, 37 °C, 1 h, absorbance 450 nm. The procedure:
Protein isolates from all seven oat varieties and selected synthesised peptides were tested in vitro for ACE-I inhibition. The bioassay (ACE Kit—WST, Dojindo Laboratories, Kumamoto, Japan) was carried out according to the manufacturer’s instructions. First, 20 μL of each sample inhibitor at a concentration of 1 mg/mL ddH2O was added to 20 μL substrate and 20 μL enzyme working solution in triplicate. Samples were incubated at 37 °C for 1 h. Each well then had 200 μL indicator working solution added, followed by a further incubation at room temperature for 10 min. Absorbance at 450 nm was read using a FLUOstar Omega microplate reader (BMG LABTECH GmbH, Offenburg, Germany). The percentage inhibition was calculated using the following equation:% ACE-I inhibition = 100% Initial activity − Inhibitor × 100/100% Initial activity(2)

Test [2] concerns dipeptidyl peptidase-IV (DPP-IV; EC 3.4.14.5). Conditions: synthesised peptides, 1 mg/mL; 10 μL sample at 1 mg/mL assay buffer + 30 μL buffer, 10 μL DPP-IV, 50 μL substrate; 37 °C, 30 min; fluorescence 355/460 nm; mean of triplicate samples.
Procedure: Protein isolates from all seven oat varieties and selected synthesised peptides were tested in vitro for DPP-IV inhibition. […] First, 10 μL of each sample inhibitor at a concentration of 1 mg/mL assay buffer was added to 30 μL diluted assay buffer, 10 μL diluted DPP-IV, and 50 μL substrate solution, in triplicate. Samples were incubated at 37 °C for 30 min. Fluorescence was read with excitation wavelengths of 355 nm and emission wavelengths of 460 nm using a FLUOstar Omega microplate reader (BMG LABTECH GmbH, Offenburg, Germany). The percentage inhibition was calculated using the following equation:% DPP-IV inhibition = 100% Initial activity − Inhibitor × 100/100% Initial activity (3)
Another test concerns renin (EC 3.4.23.15). The test is described as follows: Renin Inhibition Screening Assay. Conditions: synthesised peptides, 1 mg/mL; 10 μL sample at 1 mg/mL DMSO + 20 μL substrate, 150 μL buffer, 10 μL renin; 37 °C, 15 min; fluorescence 340/500 nm; mean of triplicate samples. The procedure: Protein isolates from all seven oat varieties and selected synthesised peptides were tested in vitro for renin inhibition activity. The Renin Inhibition Screening Assay (Cambridge BioSciences, Cambridge, UK) was carried out as per the manufacturer’s instructions. Briefly, 10 μL of each sample inhibitor at a concentration of 1 mg/mL dimethyl sulfoxide (DMSO) was added to 20 μL renin substrate, 150 μL assay buffer, and 10 μL renin, in triplicate. The samples were incubated at 37 °C for 15 min, and read with excitation wavelengths of 340 nm and emission wavelengths of 500 nm. Fluorescence was read using a FLUOstar Omega microplate reader (BMG LABTECH GmbH, Offenburg, Germany). The percentage inhibition was calculated using the following equation:% Renin inhibition = 100% Initial activity − Inhibitor × 100/100% Initial activity (1)

[3] abbreviates: synthesised peptides, 20 μL sample at 1 mg/mL ddH2O + 20 μL substrate, 20 μL enzyme, mean of triplicate samples.

Consider `C[C@H](CS)C(=O)N1CCC[C@H]1C(=O)O` [captopril, reference compound], for which, in test [1] (positive control, triplicate), the “% ACE-I inhibition” value is reported as 97.7% (±23.2%).

For the molecule “FEPL [chemically synthesised peptide; 12S globulin f(53–56), papain]”, in test [1] (setting [3]), the “% ACE-I inhibition” value is given as 48.9 ± 7.8%.

Consider “FLLA [chemically synthesised peptide; 11S globulin/12S globulin f(203–206), papain]”, for which the “% ACE-I inhibition” value in test [1] (setting [3]) is 97 ± 16.2%.

Consider “FPIL [chemically synthesised peptide; 11S globulin f(364–367), ficin]”, for which, in test [2], the “% DPP-IV inhibition” value is reported as 13.1 ± 3.2%.

On to “IFFFL [chemically synthesised peptide; Avenin f(3–7), ficin]”, for which, in the test on renin (EC 3.4.23.15), the “% Renin inhibition” value is listed as 17.1% (±2.6%). The “% ACE-I inhibition” value in test [1] (setting [3]) was found to be 53 ± 41.2%.
